Measurements published in patent US10533164B2, “Mutant sialidase having trans-sialidase activity for use in production of sialylated glycans” (priority 2013, dated 2020).

B1: Tr6 P98A: Tr6 mutant, reversion of mutation P98A (protein)
chain: LAPGSSRVELFKRKNSTVPFEESNGTIRERVVHSFRLPTIVNVDGVMVAIADARYETSFDNSFIETAVKYSVDDGATWNTQIAIKNSRASSVSRVVDATVIVKGNKLYILVGSFNKTRNYWTQHRDGSDWEPLLVVGEVTKSAANGKTTATISWGKPVSLKPLFPAEFDGILTKEFVGGVGAAIVASNGNLVYPVQIADMGGRVFTKIMYSEDDGNTWKFAEGRSKFGCSEPAVLEWEGKLIINNRVDYNRRLVYESSDMGKTWVEALGTLSHVWTNSPTSNQPDCQSSFVAVTIEGKRVMLFTHPLNLKGRWMRDRLHLWMTDNQRIFDVGQISIGDENSGYSSVLYKDDKLYSLHEINTNDVYSLVFVRLIGELQLMKSVVRTWKEEDNHLASICTPVVPATPPSKGACGAAVPTAGLVGFLSHSANGSVWEDVYRCVDANVANAERVPNGLKFNGVGGGAVWPVARQGQTRRYQFANYRFTLVATVTIDELPKGTSPLLGAGLEGPGDAKLLGLSYDKNRQWRPLYGAAPASPTGSWELHKKYHVVLTMADRQGSVYVDGQPLAGSGNTVVRGATLPDISHFYIGGPRSKGAPTDSRVTVTNVVLYNRRLNSSEIRTLFLSQDMIGTDGGAGTAA
B2: Tr6 Y249G: Tr6 mutant, reversion of mutation Y249G (protein)
chain: LAPGSSRVELFKRKNSTVPFEESNGTIRERVVHSFRLPTIVNVDGVMVAIADARYETSFDNSFIETAVKYSVDDGATWNTQIAIKNSRASSVSRVVDPTVIVKGNKLYILVGSFNKTRNYWTQHRDGSDWEPLLVVGEVTKSAANGKTTATISWGKPVSLKPLFPAEFDGILTKEFVGGVGAAIVASNGNLVYPVQIADMGGRVFTKIMYSEDDGNTWKFAEGRSKFGCSEPAVLEWEGKLIINNRVDGNRRLVYESSDMGKTWVEALGTLSHVWTNSPTSNQPDCQSSFVAVTIEGKRVMLFTHPLNLKGRWMRDRLHLWMTDNQRIFDVGQISIGDENSGYSSVLYKDDKLYSLHEINTNDVYSLVFVRLIGELQLMKSVVRTWKEEDNHLASICTPVVPATPPSKGACGAAVPTAGLVGFLSHSANGSVWEDVYRCVDANVANAERVPNGLKFNGVGGGAVWPVARQGQTRRYQFANYRFTLVATVTIDELPKGTSPLLGAGLEGPGDAKLLGLSYDKNRQWRPLYGAAPASPTGSWELHKKYHVVLTMADRQGSVYVDGQPLAGSGNTVVRGATLPDISHFYIGGPRSKGAPTDSRVTVTNVVLYNRRLNSSEIRTLFLSQDMIGTDGGAGTAA
B3: Tr6 D363E: Tr6 sialidase mutant with amino acid change D363E (protein)
chain: LAPGSSRVELFKRKNSTVPFEESNGTIRERVVHSFRLPTIVNVDGVMVAIADARYETSFDNSFIETAVKYSVDDGATWNTQIAIKNSRASSVSRVVDPTVIVKGNKLYILVGSFNKTRNYWTQHRDGSDWEPLLVVGEVTKSAANGKTTATISWGKPVSLKPLFPAEFDGILTKEFVGGVGAAIVASNGNLVYPVQIADMGGRVFTKIMYSEDDGNTWKFAEGRSKFGCSEPAVLEWEGKLIINNRVDYNRRLVYESSDMGKTWVEALGTLSHVWTNSPTSNQPDCQSSFVAVTIEGKRVMLFTHPLNLKGRWMRDRLHLWMTDNQRIFDVGQISIGDENSGYSSVLYKDDKLYSLHEINTNEVYSLVFVRLIGELQLMKSVVRTWKEEDNHLASICTPVVPATPPSKGACGAAVPTAGLVGFLSHSANGSVWEDVYRCVDANVANAERVPNGLKFNGVGGGAVWPVARQGQTRRYQFANYRFTLVATVTIDELPKGTSPLLGAGLEGPGDAKLLGLSYDKNRQWRPLYGAAPASPTGSWELHKKYHVVLTMADRQGSVYVDGQPLAGSGNTVVRGATLPDISHFYIGGPRSKGAPTDSRVTVTNVVLYNRRLNSSEIRTLFLSQDMIGTDGGAGTAA

Tests used:
[1] = test system: Bifidobacterium longum (BI-05, DGCC 9917); test: Bacterial growth on sialylated glycans; type: cell-based; details: B. longum 9917; substrate 10 g/L in MRS-medium; average of 3 replicates
[2] = test system: Bifidobacterium longum infantis (DGCC 2238); test: Bacterial growth on sialylated glycans; type: cell-based; details: B. infantis 2238; substrate 10 g/L in MRS-medium; average of 3 replicates
[3] = test system: group of probiotic strains; test: Bacterial growth on sialylated glycans, probiotic strains as a group; type: cell-based
[4] = test system: Bifidobacterium longum infantis (DGCC 233); test: Bacterial growth on sialylated glycans; type: cell-based; details: B. infantis 233; for Area under the growth curve: substrate 10 g/L in MRS-medium, average of 3 replicates
[5] = test system: Lactobacillus acidophilus (NCFM, ATCC 700396); test: Bacterial growth on sialylated glycans; type: cell-based; details: L. acidophilus; substrate 10 g/L in MRS-medium; average of 3 replicates
[6] = test system: Bifidobacterium longum longum (DGCC 232); test: Bacterial growth on sialylated glycans; type: cell-based; details: B. longum 232; for Area under the growth curve: substrate 10 g/L in MRS-medium, average of 3 replicates
[7] = test system: Bifidobacterium longum infantis (DGCC 1497); test: Bacterial growth on sialylated glycans; type: cell-based; details: B. infantis 1497; for Area under the growth curve: substrate 10 g/L in MRS-medium, average of 3 replicates
[8] = test system: Clostridium perfringens (ATCC 13124); type: cell-based; details: C. perfringens; substrate 10 g/L in MRS-medium; average of 3 replicates
[9] = test system: Bifidobacterium lactis (HN019, DGCC2013); test: Bacterial growth on sialylated glycans; type: cell-based; details: B. lactis; substrate 10 g/L in MRS-medium; average of 3 replicates
[10] = Trans-sialidase activity assay (fluorescence-based); type: biochemical; details: for trans-sialidase activity relative to Tr6 parent (product formation, FIG. 4): mutants from shake flask cultures, cGMP donor, MU-Gal acceptor
Description: The invention provides a method for assaying the mutant trans-sialidase of the invention, that may for example be obtained by recombinant expression. Example 2.1 describes a fluorescence-based assay employing cGMP-bound sialic acid (for example 1 mM) as donor substrate and methylumbelliferyl-β-D-galactopyranoside (MU-Gal) as the acceptor (for example 0.5 mM), where the reaction is performed in a 50 mM phosphate-citrate (pH 6) at 30° C.
Trans-sialidase activity was assayed as described previously but with the following modifications. Reactions were performed in 50 mM phosphate-citrate (pH 6) at 30° C. using 2.9 μg/mL enzyme. The assay employed 1 mM cGMP-bound sialic acid as donor substrate and MU-Gal as the acceptor. MU-Gal at 0.5 mM was the highest final concentration to be tested due to its low solubility in aqueous solution. A solution of 87 mM MU-Gal in DMSO was diluted to 2 mM in 50 mM phosphate-citrate buffer (pH 6) immediately before preparing the reactions. When assaying crude enzyme preparations from P. pastoris, a background signal was observed, and attributed to cleavage of MU-Gal by endogenous β-galactosidase. This background signal could be removed by washing the column eight times with 440 μL of 5 mM HCl after sample application without desorption of the sialylated product and this was therefore done routinely.
To assess the performance of the mutant enzymes, they were produced by recombinant expression in P. pastoris, transformed with the respective mutant gene, by growth in shake flask cultures. The trans-sialidase activity of the expressed mutant enzymes was measured with a fluorescence-based assay using cGMP as sialic acid donor and methylumbelliferyl-β-D-galactopyranoside (MU-Gal) as acceptor (FIG. 4). As the detected product is a measure of both the trans-sialidase activity (product formation) and hydrolase activity (product degradation) the assay provides an effective screen for mutants having a higher trans-sialidase to hydrolase activity ratio.

[11] = Sialidase (hydrolase) activity assay; type: biochemical; details: substrate pNP-Neu5Ac; compared with Tr6
Description: Sialidase activity was measured in a reaction containing 50 mM phosphate-citrate buffer (pH 7), 0.75 mM pNP-NeuAc and 3 μg/mL sialidase enzyme. Reactions were initiated by addition of substrate and followed spectrophotometrically at 410 nm at 30° C. pH 7 was chosen to enable detection of released pNP in a continuous assay. Reaction rates were normalized as % of the activity of the Tr6 parent enzyme. For measurement of hydrolysis of natural substrates, the assay was performed with either 1 mM 3′-sialyllactose, 1 mM 6′-sialyllactose or 1 mM cGMP-bound sialic acid in 50 mM phosphate-citrate buffer (pH 5) using 1 μg/mL enzyme. Reactions were started by addition of enzyme and stopped by adding H2SO4 to 45 mM final concentration. Quantification of free sialic acid was performed using a 2-thiobarbituric acid assay with the modification that butanol extraction was substituted with mixing with dimethyl sulfoxide (DMSO).

Molecule | Area under the growth curve [1] | Area under the growth curve [2] | growth promotion (in words) [3] | Area under the growth curve [4] | Area under the growth curve [5] | Area under the growth curve [6] | growth promotion (in words) [7] | Area under the growth curve [7] | Area under the growth curve [8] | Area under the growth curve [9] | growth promotion (in words) [4] | growth promotion (in words) [6] | trans-sialidase activity relative to Tr6 parent (product formation, FIG. 4) [10] | trans-sialylated product yield (maximum product formation, FIG. 5B) ([10]; purified enzyme from 5 L fermentor, time course, compared with Tr6) | hydrolase activity (FIG. 5A) [11]
CC(=O)NC1C(O)CC(OC2C(O)C(CO)OC(OCC3OC(O)C(O)C(O)C3O)C2O)(C(=O)O)OC1C(O)C(O)CO (stereo not drawn) [S-melibiose, SA-α-Gal-1,6-α-Glc] | 70 ± 8 OD600 × min | 302 ± 2 OD600 × min | did not appear to promote growth | 14 ± 6 OD600 × min | 192 ± 4 OD600 × min | 104 ± 17 OD600 × min |  |  |  |  |  |  |  |  | 
SA-α-Fuc [S-fucose] | 114 ± 15 OD600 × min | 285 ± 15 OD600 × min |  | 71 ± 6 OD600 × min | 188 ± 18 OD600 × min | 192 ± 20 OD600 × min | promoted growth | 149 ± 2 OD600 × min | 811 ± 48 OD600 × min | 192 ± 27 OD600 × min | promoted growth | promoted growth |  |  | 
SA-α-Gal-1,4-β-Fru [S-lactulose] | 34 ± 14 OD600 × min | 269 ± 20 OD600 × min |  | 109 ± 20 OD600 × min | 128 ± 2 OD600 × min | 134 ± 19 OD600 × min |  | 34 ± 2 OD600 × min | 541 ± 17 OD600 × min | 122 ± 18 OD600 × min |  |  |  |  | 
SA-α-Glc-1,4-α-Glc [S-maltose] | 101 ± 6 OD600 × min | 158 ± 24 OD600 × min | did not appear to promote growth | 30 ± 4 OD600 × min | 193 ± 12 OD600 × min | 122 ± 31 OD600 × min |  |  | 844 ± 99 OD600 × min | 102 ± 8 OD600 × min |  |  |  |  | 
B1 |  |  |  |  |  |  |  |  |  |  |  |  | reduction in trans-sialidase activity |  | 
B2 |  |  |  |  |  |  |  |  |  |  |  |  | reduction in trans-sialidase activity |  | 
B3 |  |  |  |  |  |  |  |  |  |  |  |  | enhanced trans-sialidase activity | similarly low product formation profile as Tr6 | reduced hydrolase activity
